{"source": "ChEMBL document CHEMBL4507299", "about": "“Data for DCP probe PF-04554878” (2021)", "key": {"[1]": {"molecular_target": "Serine/threonine-protein kinase PLK4 (Homo sapiens) (UniProt O00444)"}, "[2]": {"molecular_target": "TRAF2 and NCK-interacting protein kinase (Homo sapiens) (UniProt Q9UKE5)"}, "[3]": {"tested_on": "Epidermal growth factor receptor (Homo sapiens), P00533 [L858R]"}, "[4]": {"molecular_target": "Tyrosine-protein kinase Fyn (Homo sapiens) (UniProt P06241)", "sequence (P06241 2-537 limits assumed)": "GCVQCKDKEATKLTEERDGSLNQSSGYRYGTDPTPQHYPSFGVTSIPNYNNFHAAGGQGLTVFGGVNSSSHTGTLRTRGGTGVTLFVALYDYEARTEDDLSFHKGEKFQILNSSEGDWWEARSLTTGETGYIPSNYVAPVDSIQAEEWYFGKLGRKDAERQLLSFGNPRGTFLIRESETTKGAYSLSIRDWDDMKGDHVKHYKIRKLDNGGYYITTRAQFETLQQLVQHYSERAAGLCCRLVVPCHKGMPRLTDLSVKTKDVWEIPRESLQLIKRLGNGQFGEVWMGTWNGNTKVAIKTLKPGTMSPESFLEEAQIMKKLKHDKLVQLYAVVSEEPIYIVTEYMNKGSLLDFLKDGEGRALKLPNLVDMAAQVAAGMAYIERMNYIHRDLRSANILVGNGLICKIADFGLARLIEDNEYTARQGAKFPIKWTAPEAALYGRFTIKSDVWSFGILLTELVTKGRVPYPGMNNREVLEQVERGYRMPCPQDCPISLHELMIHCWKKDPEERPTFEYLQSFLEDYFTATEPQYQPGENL"}, "[5]": {"molecular_target": "Cyclin-dependent kinase 13 (Homo sapiens) (UniProt Q14004)"}, "[6]": {"molecular_target": "Serine/threonine-protein kinase PAK 5 (Homo sapiens) (UniProt Q9P286)"}, "[7]": {"molecular_target": "Phosphorylase b kinase gamma catalytic chain, skeletal muscle/heart isoform (Homo sapiens) (UniProt Q16816)"}, "[8]": {"molecular_target": "Phosphatidylinositol 4-kinase beta (Homo sapiens) (UniProt Q9UBF8)", "sequence (Q9UBF8 2-816 limits assumed)": "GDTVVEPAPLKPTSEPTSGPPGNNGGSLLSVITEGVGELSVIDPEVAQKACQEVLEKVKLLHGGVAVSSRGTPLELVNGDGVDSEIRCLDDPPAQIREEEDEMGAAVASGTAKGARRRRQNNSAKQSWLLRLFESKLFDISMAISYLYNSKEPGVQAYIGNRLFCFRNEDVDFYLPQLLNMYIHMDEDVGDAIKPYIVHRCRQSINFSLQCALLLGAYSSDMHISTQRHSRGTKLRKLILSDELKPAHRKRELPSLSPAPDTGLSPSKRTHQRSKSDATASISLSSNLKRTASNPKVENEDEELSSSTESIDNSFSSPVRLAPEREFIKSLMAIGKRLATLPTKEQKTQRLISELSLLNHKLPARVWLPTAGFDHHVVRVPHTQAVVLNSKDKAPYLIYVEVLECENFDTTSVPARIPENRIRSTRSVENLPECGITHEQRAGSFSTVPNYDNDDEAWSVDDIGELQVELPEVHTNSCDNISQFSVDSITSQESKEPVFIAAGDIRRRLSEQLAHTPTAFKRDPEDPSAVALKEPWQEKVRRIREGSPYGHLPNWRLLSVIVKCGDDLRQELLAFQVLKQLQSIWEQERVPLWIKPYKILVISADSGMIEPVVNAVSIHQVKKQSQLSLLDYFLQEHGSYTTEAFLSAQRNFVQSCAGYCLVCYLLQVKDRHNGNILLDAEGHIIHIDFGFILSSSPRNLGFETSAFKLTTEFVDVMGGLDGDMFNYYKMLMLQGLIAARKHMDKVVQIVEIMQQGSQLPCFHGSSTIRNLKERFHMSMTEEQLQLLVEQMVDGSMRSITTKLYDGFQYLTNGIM"}, "[9]": {"molecular_target": "Angiopoietin-1 receptor (Homo sapiens) (UniProt Q02763)"}, "[10]": {"molecular_target": "Bone morphogenetic protein receptor type-2 (Homo sapiens) (UniProt Q13873)"}, "[11]": {"molecular_target": "Sodium-dependent noradrenaline transporter (Homo sapiens) (UniProt P23975)", "conditions": "Compound concentration 10.0 uM"}, "[12]": {"molecular_target": "Dual specificity tyrosine-phosphorylation-regulated kinase 1B (Homo sapiens) (UniProt Q9Y463)", "sequence (Q9Y463 whole entry, looked up)": "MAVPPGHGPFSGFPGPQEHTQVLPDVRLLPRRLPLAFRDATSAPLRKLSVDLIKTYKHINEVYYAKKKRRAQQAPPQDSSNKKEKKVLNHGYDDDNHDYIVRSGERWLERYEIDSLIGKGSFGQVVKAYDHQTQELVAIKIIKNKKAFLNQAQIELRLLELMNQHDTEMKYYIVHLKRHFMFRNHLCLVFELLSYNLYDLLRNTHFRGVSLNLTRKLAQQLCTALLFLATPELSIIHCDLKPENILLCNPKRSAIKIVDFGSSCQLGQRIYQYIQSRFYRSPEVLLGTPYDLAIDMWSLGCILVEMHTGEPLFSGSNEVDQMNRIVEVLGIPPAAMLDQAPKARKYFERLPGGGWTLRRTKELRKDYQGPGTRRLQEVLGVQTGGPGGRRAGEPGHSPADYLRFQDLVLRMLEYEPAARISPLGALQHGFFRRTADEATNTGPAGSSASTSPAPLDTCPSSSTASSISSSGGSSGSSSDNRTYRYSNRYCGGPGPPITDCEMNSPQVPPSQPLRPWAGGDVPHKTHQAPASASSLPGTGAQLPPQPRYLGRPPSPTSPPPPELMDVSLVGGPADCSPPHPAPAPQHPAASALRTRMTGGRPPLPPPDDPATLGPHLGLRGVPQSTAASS"}, "[13]": {"tested_on": "Fibroblast growth factor receptor 3 (Homo sapiens), P22607 [G697C]"}, "[14]": {"molecular_target": "G protein-coupled receptor kinase 4 (Homo sapiens) (UniProt P32298)"}, "[15]": {"molecular_target": "Tyrosine-protein kinase JAK1 (Homo sapiens) (UniProt P23458)"}, "[16]": {"molecular_target": "Serine/threonine-protein kinase mTOR (Homo sapiens) (UniProt P42345)"}, "[17]": {"tested_on": "Leucine-rich repeat serine/threonine-protein kinase 2 (Homo sapiens), Q5S007 [G2019S]"}, "[18]": {"molecular_target": "Hormonally up-regulated neu tumor-associated kinase (Homo sapiens) (UniProt P57058)"}, "[19]": {"molecular_target": "Serine/threonine-protein kinase pim-1 (Homo sapiens) (UniProt P11309)"}, "[20]": {"molecular_target": "Delta-type opioid receptor (Homo sapiens) (UniProt P41143)", "conditions": "Compound concentration 10.0 uM"}, "[21]": {"molecular_target": "Ephrin type-A receptor 5 (Homo sapiens) (UniProt P54756)"}, "[22]": {"molecular_target": "MAP kinase-interacting serine/threonine-protein kinase 1 (Homo sapiens) (UniProt Q9BUB5)"}, "[23]": {"tested_on": "Receptor-type tyrosine-protein kinase FLT3 (Homo sapiens), P36888 [D835V]"}, "[24]": {"molecular_target": "Tyrosine-protein kinase BTK (Homo sapiens) (UniProt Q06187)"}, "[25]": {"molecular_target": "Ribosomal protein S6 kinase alpha-4 (Homo sapiens) (UniProt O75676)"}, "[26]": {"molecular_target": "Cyclin-dependent kinase 14 (Homo sapiens) (UniProt O94921)", "sequence (O94921 whole entry)": "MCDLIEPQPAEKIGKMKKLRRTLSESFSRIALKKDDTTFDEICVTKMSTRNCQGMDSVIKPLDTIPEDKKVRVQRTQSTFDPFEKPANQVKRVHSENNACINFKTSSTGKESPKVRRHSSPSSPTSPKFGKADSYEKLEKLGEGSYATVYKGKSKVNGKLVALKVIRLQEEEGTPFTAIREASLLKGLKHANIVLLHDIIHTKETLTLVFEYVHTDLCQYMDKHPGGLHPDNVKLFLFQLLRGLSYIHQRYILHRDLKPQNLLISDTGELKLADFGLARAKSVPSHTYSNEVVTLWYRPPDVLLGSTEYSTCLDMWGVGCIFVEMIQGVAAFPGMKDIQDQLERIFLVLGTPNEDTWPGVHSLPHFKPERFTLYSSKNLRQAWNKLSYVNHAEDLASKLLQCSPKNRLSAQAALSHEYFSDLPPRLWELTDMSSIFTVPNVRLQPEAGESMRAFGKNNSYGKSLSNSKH"}, "[27]": {"molecular_target": "Cyclin-dependent kinase 18 (Homo sapiens) (UniProt Q07002)"}, "[28]": {"molecular_target": "Dual specificity mitogen-activated protein kinase kinase 5 (Homo sapiens) (UniProt Q13163)"}, "[29]": {"molecular_target": "T1, Serine/threonine-protein kinase Sgk1 (Homo sapiens) (UniProt O00141)", "T1 sequence (whole entry)": "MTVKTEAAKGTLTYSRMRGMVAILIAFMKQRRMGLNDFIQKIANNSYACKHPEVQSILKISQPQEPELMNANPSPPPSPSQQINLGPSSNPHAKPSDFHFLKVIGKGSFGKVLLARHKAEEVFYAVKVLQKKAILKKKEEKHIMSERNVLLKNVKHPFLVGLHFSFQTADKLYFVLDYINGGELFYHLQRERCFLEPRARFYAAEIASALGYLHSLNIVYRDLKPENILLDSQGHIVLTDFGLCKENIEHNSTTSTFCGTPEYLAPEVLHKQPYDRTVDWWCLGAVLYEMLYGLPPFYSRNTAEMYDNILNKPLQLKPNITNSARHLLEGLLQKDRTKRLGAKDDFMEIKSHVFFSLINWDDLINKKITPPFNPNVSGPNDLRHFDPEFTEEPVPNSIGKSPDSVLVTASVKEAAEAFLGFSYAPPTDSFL"}, "[30]": {"molecular_target": "LIM domain kinase 2 (Homo sapiens) (UniProt P53671)"}, "[31]": {"molecular_target": "Mitogen-activated protein kinase 4 (Homo sapiens) (UniProt P31152)"}, "[32]": {"molecular_target": "Serine/threonine-protein kinase STK11 (Homo sapiens) (UniProt Q15831)", "sequence (Q15831 whole entry)": "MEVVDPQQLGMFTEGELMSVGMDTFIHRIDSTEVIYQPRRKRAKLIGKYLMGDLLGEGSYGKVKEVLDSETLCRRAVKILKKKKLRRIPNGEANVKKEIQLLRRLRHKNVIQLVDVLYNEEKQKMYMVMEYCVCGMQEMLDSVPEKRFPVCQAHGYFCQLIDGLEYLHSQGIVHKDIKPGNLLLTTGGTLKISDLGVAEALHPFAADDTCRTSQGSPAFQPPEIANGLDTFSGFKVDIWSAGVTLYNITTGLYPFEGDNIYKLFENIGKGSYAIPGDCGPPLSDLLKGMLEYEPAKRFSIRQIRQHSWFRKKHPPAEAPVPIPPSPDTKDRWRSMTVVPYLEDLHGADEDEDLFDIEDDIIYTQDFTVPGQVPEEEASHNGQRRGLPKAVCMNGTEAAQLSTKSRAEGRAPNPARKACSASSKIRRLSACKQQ"}, "[33]": {"molecular_target": "Dual specificity mitogen-activated protein kinase kinase 3 (Homo sapiens) (UniProt P46734)"}, "[34]": {"molecular_target": "Insulin receptor (Homo sapiens) (UniProt P06213)"}, "[35]": {"molecular_target": "ALK tyrosine kinase receptor (Homo sapiens) (UniProt Q9UM73)"}, "Rattus norvegicus": {"species_on_record": "Rattus norvegicus", "conditions": "Compound concentration 10.0 uM"}, "[36]": {"molecular_target": "Serine/threonine-protein kinase SIK3 (Homo sapiens) (UniProt Q9Y2K2)", "sequence (Q9Y2K2 whole entry, looked up)": "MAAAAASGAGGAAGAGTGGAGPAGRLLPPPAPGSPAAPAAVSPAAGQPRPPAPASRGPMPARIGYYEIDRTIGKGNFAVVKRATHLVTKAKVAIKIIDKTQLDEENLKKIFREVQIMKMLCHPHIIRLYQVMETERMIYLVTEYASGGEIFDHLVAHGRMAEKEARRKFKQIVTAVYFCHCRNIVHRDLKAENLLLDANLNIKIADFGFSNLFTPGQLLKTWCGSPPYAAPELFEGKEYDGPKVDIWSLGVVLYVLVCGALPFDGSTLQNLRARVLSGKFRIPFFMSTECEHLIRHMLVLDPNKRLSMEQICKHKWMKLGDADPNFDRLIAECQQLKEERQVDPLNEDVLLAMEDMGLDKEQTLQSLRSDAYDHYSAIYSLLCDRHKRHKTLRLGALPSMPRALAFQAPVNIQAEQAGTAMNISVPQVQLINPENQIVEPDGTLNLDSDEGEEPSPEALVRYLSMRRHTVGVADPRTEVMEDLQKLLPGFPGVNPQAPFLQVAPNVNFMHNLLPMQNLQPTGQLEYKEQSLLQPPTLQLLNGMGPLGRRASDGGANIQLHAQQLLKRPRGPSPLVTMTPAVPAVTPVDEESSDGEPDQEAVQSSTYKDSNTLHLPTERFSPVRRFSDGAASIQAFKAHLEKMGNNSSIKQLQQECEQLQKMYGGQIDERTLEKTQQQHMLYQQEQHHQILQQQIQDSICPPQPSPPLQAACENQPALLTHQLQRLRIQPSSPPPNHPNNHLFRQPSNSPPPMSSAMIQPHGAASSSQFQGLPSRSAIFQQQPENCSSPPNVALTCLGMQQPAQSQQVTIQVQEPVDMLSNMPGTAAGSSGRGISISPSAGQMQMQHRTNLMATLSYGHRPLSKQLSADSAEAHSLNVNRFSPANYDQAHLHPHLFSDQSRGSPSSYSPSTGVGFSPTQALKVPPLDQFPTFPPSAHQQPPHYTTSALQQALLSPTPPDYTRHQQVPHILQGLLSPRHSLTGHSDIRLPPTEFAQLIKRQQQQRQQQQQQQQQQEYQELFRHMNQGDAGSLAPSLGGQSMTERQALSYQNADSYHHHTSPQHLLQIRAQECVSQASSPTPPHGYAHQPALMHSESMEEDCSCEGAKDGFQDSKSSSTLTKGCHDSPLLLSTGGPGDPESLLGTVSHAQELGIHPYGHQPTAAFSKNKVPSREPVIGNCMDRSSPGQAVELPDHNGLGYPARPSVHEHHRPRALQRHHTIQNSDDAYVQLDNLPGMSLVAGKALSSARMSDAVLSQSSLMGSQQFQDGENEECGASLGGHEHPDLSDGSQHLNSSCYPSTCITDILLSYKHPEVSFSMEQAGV"}, "[37]": {"molecular_target": "Eukaryotic translation initiation factor 2-alpha kinase 1 (Homo sapiens) (UniProt Q9BQI3)", "sequence (Q9BQI3 whole entry)": "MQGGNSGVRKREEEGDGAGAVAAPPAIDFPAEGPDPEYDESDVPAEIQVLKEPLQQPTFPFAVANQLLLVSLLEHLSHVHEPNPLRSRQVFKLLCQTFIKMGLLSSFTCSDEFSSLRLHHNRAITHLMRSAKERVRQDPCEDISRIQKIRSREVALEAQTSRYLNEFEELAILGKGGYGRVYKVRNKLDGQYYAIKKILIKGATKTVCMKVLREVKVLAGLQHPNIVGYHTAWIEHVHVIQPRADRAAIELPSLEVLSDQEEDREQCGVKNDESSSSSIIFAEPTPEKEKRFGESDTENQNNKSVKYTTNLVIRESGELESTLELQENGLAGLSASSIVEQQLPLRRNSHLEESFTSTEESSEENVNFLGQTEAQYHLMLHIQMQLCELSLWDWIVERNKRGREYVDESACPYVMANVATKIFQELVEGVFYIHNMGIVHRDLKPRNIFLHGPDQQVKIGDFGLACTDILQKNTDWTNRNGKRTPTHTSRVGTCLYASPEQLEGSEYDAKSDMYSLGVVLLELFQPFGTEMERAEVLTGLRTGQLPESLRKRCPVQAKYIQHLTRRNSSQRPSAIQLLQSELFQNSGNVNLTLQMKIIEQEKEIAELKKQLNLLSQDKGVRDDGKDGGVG"}, "[38]": {"molecular_target": "Muscarinic acetylcholine receptor M3 (Homo sapiens) (UniProt P20309)", "conditions": "Compound concentration 10.0 uM"}, "[39]": {"molecular_target": "Serine/threonine-protein kinase VRK2 (Homo sapiens) (UniProt Q86Y07)"}, "[40]": {"conditions": "Compound concentration 100.0 nM"}, "[41]": {"conditions": "Compound concentration 1000.0 nM"}}}
{"smiles": "CNC(=O)c1ccc(Nc2ncc(C(F)(F)F)c(NCc3nccnc3N(C)S(C)(=O)=O)n2)cc1", "note": "[DEFACTINIB]", "values": [{"measurement": "residual activity", "setting": "[1]; [40]", "result": 79, "unit": "%"}, {"measurement": "residual activity", "setting": "[2]; [40]", "result": 65, "unit": "%"}, {"measurement": "residual activity", "setting": "[3]; [40]", "result": 100, "unit": "%"}, {"measurement": "residual activity", "setting": "[4]; [40]", "result": 100, "unit": "%"}, {"measurement": "residual activity", "setting": "[5]; [40]", "result": 94, "unit": "%"}, {"measurement": "residual activity", "setting": "[6]; [40]", "result": 62, "unit": "%"}, {"measurement": "residual activity", "setting": "[7]; [40]", "result": 100, "unit": "%"}, {"measurement": "residual activity", "setting": "[8]; [40]", "result": 99, "unit": "%"}, {"measurement": "residual activity", "setting": "[9]; [40]", "result": 69, "unit": "%"}, {"measurement": "residual activity", "setting": "[10]; [40]", "result": 91, "unit": "%"}, {"measurement": "inhibition", "setting": "[11]", "result": 7.81, "unit": "%"}, {"measurement": "residual activity", "setting": "[12]; [40]", "result": 79, "unit": "%"}, {"measurement": "residual activity", "setting": "[13]; [40]", "result": 100, "unit": "%"}, {"measurement": "residual activity", "setting": "[14]; [40]", "result": 98, "unit": "%"}, {"measurement": "residual activity", "setting": "[15]; [40]", "result": 28, "unit": "%"}, {"measurement": "residual activity", "setting": "[16]; [40]", "result": 100, "unit": "%"}, {"measurement": "residual activity", "setting": "[17]; [40]", "result": 65, "unit": "%"}, {"measurement": "residual activity", "setting": "[18]; [40]", "result": 100, "unit": "%"}, {"measurement": "residual activity", "setting": "[19]; [40]", "result": 93, "unit": "%"}, {"measurement": "inhibition", "setting": "[20]", "result": -0.28, "unit": "%"}, {"measurement": "residual activity", "setting": "[21]; [40]", "result": 64, "unit": "%"}, {"measurement": "residual activity", "setting": "[22]; [40]", "result": 83, "unit": "%"}, {"measurement": "residual activity", "setting": "[23]; [40]", "result": 0.2, "unit": "%"}, {"measurement": "residual activity", "setting": "[24]; [40]", "result": 83, "unit": "%"}, {"measurement": "residual activity", "setting": "[25]; [40]", "result": 85, "unit": "%"}, {"measurement": "residual activity", "setting": "[26]; [40]", "result": 88, "unit": "%"}, {"measurement": "residual activity", "setting": "[27]; [40]", "result": 68, "unit": "%"}, {"measurement": "residual activity", "setting": "[28]; [40]", "result": 89, "unit": "%"}, {"measurement": "residual activity", "setting": "[29]; [40]", "result": 56, "unit": "%"}, {"measurement": "residual activity", "setting": "[30]; [40]", "result": 87, "unit": "%"}, {"measurement": "residual activity", "setting": "[31]; [40]", "result": 87, "unit": "%"}, {"measurement": "residual activity", "setting": "[32]; [40]", "result": 100, "unit": "%"}, {"measurement": "residual activity", "setting": "[33]; [40]", "result": 48, "unit": "%"}, {"measurement": "residual activity", "setting": "[34]; [40]", "result": 91, "unit": "%"}, {"measurement": "residual activity", "setting": "[35]; [40]", "result": 58, "unit": "%"}, {"measurement": "inhibition", "setting": "Rattus norvegicus", "result": 31.4, "unit": "%"}, {"measurement": "residual activity", "setting": "[36]; [40]", "result": 82, "unit": "%"}, {"measurement": "residual activity", "setting": "[37]; [40]", "result": 85, "unit": "%"}, {"measurement": "inhibition", "setting": "[38]", "result": 23.8, "unit": "%"}, {"measurement": "residual activity", "setting": "[39]; [40]", "result": 85, "unit": "%"}]}
{"smiles": "CN(c1ccnc(CNc2nc(Nc3ccc4c(c3)CC(=O)N4)ncc2C(F)(F)F)n1)S(C)(=O)=O", "note": "[PF-00911705]", "values": [{"measurement": "residual activity", "setting": "[1]; [41]", "result": 50, "unit": "%"}, {"measurement": "residual activity", "setting": "[2]; [41]", "result": 77, "unit": "%"}, {"measurement": "residual activity", "setting": "[3]; [41]", "result": 73, "unit": "%"}, {"measurement": "residual activity", "setting": "[4]; [41]", "result": 59, "unit": "%"}, {"measurement": "residual activity", "setting": "[5]; [41]", "result": 82, "unit": "%"}, {"measurement": "residual activity", "setting": "[6]; [41]", "result": 76, "unit": "%"}, {"measurement": "residual activity", "setting": "[7]; [41]", "result": 76, "unit": "%"}, {"measurement": "residual activity", "setting": "[8]; [41]", "result": 76, "unit": "%"}, {"measurement": "residual activity", "setting": "[9]; [41]", "result": 50, "unit": "%"}, {"measurement": "residual activity", "setting": "[10]; [41]", "result": 60, "unit": "%"}, {"measurement": "inhibition", "setting": "[11]", "result": 3.15, "unit": "%"}, {"measurement": "residual activity", "setting": "[12]; [41]", "result": 31, "unit": "%"}, {"measurement": "residual activity", "setting": "[13]; [41]", "result": 89, "unit": "%"}, {"measurement": "residual activity", "setting": "[14]; [41]", "result": 10, "unit": "%"}, {"measurement": "residual activity", "setting": "[15]; [41]", "result": 94, "unit": "%"}, {"measurement": "residual activity", "setting": "[16]; [41]", "result": 94, "unit": "%"}, {"measurement": "residual activity", "setting": "[17]; [41]", "result": 7.3, "unit": "%"}, {"measurement": "residual activity", "setting": "[18]; [41]", "result": 100, "unit": "%"}, {"measurement": "residual activity", "setting": "[19]; [41]", "result": 79, "unit": "%"}, {"measurement": "inhibition", "setting": "[20]", "result": -6.88, "unit": "%"}, {"measurement": "residual activity", "setting": "[21]; [41]", "result": 82, "unit": "%"}, {"measurement": "residual activity", "setting": "[22]; [41]", "result": 45, "unit": "%"}, {"measurement": "residual activity", "setting": "[23]; [41]", "result": 1.5, "unit": "%"}, {"measurement": "residual activity", "setting": "[24]; [41]", "result": 63, "unit": "%"}, {"measurement": "residual activity", "setting": "[25]; [41]", "result": 81, "unit": "%"}, {"measurement": "residual activity", "setting": "[26]; [41]", "result": 86, "unit": "%"}, {"measurement": "residual activity", "setting": "[27]; [41]", "result": 100, "unit": "%"}, {"measurement": "residual activity", "setting": "[28]; [41]", "result": 48, "unit": "%"}, {"measurement": "residual activity", "setting": "[29]; [41]", "result": 66, "unit": "%"}, {"measurement": "residual activity", "setting": "[30]; [41]", "result": 94, "unit": "%"}, {"measurement": "residual activity", "setting": "[31]; [41]", "result": 57, "unit": "%"}, {"measurement": "residual activity", "setting": "[32]; [41]", "result": 72, "unit": "%"}, {"measurement": "residual activity", "setting": "[33]; [41]", "result": 58, "unit": "%"}, {"measurement": "residual activity", "setting": "[34]; [41]", "result": 100, "unit": "%"}, {"measurement": "residual activity", "setting": "[35]; [41]", "result": 81, "unit": "%"}, {"measurement": "inhibition", "setting": "Rattus norvegicus", "result": 62.1, "unit": "%"}, {"measurement": "residual activity", "setting": "[36]; [41]", "result": 82, "unit": "%"}, {"measurement": "residual activity", "setting": "[37]; [41]", "result": 87, "unit": "%"}, {"measurement": "inhibition", "setting": "[38]", "result": -4.64, "unit": "%"}, {"measurement": "residual activity", "setting": "[39]; [41]", "result": 78, "unit": "%"}]}
